Measured values as given in patent US9023789B2, “Amylin analogs and pharmaceutical compositions thereof” (Novo Nordisk A/S, priority 2012, dated 2015).

Tests used:
[1] = ASSAY (III) ThT fibrillation assay for physical stability; assay type: physicochemical
Procedure, shortened: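 Formulations with 1 μM ThT, pH adjusted as required, incubated at 37 °C with 960 rpm orbital shaking; fluorescence (ex 444/em 485 nm) read every 20 min. Fibrillation reported as mean ThT fluorescence ± SD of 4–8 replicates at time points; polypeptide concentration measured by reverse-phase HPLC before and after, post-centrifugation.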

[2] = target: T1, human amylin receptor (membranes from Amylin 3(a)/CRE-luc cells) (Homo sapiens, UniProt O60896+P30988); assay: ASSAY (V) binding to the human amylin receptor (SPA, 125I-rat amylin);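 also: competition binding of cell membranes (35 ng/µL) mixed with SPA beads in 384-well plates at 40 µL total volume, read by scintillation counting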
T1 construct: expressed in transfected cells
T1 sequence (P30988 25-474): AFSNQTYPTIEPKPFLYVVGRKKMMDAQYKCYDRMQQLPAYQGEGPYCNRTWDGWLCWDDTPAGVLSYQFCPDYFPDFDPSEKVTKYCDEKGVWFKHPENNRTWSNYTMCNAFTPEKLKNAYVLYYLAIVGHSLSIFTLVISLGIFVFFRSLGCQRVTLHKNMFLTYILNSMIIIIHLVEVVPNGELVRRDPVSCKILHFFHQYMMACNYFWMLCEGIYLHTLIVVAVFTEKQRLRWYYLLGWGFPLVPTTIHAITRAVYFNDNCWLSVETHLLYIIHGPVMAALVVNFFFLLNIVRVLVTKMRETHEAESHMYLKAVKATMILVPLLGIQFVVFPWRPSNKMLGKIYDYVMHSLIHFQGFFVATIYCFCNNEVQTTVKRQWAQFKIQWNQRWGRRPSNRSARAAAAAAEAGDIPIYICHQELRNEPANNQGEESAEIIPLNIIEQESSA
T1 sequence (O60896 24-148 partner): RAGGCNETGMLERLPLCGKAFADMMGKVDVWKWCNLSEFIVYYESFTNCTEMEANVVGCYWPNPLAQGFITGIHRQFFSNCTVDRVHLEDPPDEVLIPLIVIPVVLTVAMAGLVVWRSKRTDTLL

rat calcitonin receptor = target: T2, rat calcitonin receptor (Rattus norvegicus, UniProt P32214); assay: ASSAY (VIII) binding to the rat calcitonin receptor; conditions: Table 7, read-out: rCTR bind IC50
T2 construct: expressed in transfected cells; host or cells: BHK tk'ts 13 (transient, FuGENE 6), membranes
T2 sequence (P32214 25-479 isoform P32214-2 limits assumed): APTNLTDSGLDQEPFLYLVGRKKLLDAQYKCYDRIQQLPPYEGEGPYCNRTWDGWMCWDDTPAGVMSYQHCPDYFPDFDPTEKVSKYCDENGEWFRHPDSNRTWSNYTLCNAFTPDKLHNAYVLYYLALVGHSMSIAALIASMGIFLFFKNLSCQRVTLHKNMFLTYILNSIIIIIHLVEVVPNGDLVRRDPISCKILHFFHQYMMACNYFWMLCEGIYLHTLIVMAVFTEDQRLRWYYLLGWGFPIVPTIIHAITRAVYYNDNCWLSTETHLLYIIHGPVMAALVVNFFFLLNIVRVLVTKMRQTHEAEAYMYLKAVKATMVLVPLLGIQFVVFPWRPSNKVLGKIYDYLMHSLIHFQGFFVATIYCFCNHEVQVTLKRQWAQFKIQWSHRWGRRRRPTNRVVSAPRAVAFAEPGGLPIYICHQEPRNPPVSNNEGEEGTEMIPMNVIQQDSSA
Procedure, shortened: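 Rat calcitonin receptor is expressed transiently in BHK tk′ts 13 cells cultured in DMEM with 10% FBS. Roughly two days (approximately 48 hours) post-transfection, cells are harvested for membrane preparation.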

[3] = Table 5, selectivity, hCTR bind IC50 / hAmylin-R bind IC50
[4] = Table 5a, selectivity, hCTR bind IC50 / hAmylin-R bind IC50
[5] = Table 5b, selectivity, hCTR bind IC50 / hAmylin-R bind IC50
[6] = Table 5c, selectivity, hCTR bind IC50 / hAmylin-R bind IC50
[7] = Table 7, human binding selectivity, included for comparison
[8] = Table 7a (preferred compounds), human binding selectivity, included for comparison
[9] = ratio of human calcitonin receptor binding IC50 to human amylin receptor binding IC50

Row | ThT pH 4.0 lag time (h) [1] | Ratio hCT/hAmylin binding [2, 3] | Ratio hCT/hAmylin binding [2, 4] | Ratio hCT/hAmylin binding [2, 5] | Ratio hCT/hAmylin binding [2, 6] | Ratio hCT/hAmylin binding [2, 7] | Ratio hCT/hAmylin binding [2, 8] | Ratio hCT/hAmylin binding [2, 9] | IC50 (rat calcitonin receptor) | SMILES
1 | 12 h | 145.6 | 145.6 | 145.6 | 145.6 | 145.6 | 145.6 | 145.6 | 140 nM | CC[C@H](C)[C@H](NC(=O)[C@H](C)NC(=O)CNC(=O)[C@H](Cc1ccccc1)NC(=O)[C@H](CC(N)=O)NC(=O)[C@@H]1CCCN1C(=O)[C@H](CO)NC(=O)[C@H](CO)NC(=O)[C@H](Cc1c[nH]cn1)NC(=O)[C@H](CCCNC(=N)N)NC(=O)[C@H](CC(C)C)NC(=O)[C@H](Cc1ccccc1)NC(=O)[C@H](CCCNC(=N)N)NC(=O)[C@H](C)NC(=O)[C@H](CC(C)C)NC(=O)[C@H](CCCNC(=N)N)NC(=O)[C@H](CCC(N)=O)NC(=O)[C@@H](NC(=O)[C@H](C)NC(=O)[C@@H]1CSSC[C@H](NC(=O)[C@@H](N)CCCCNC(=O)CC[C@H](NC(=O)CCCCCCCCCCCCCCCCCCC(=O)O)C(=O)O)C(=O)N[C@@H](CC(N)=O)C(=O)N[C@@H]([C@@H](C)O)C(=O)N[C@@H](C)C(=O)N[C@@H]([C@@H](C)O)C(=O)N1)[C@@H](C)O)C(=O)N1CCC[C@H]1C(=O)N[C@@H](CO)C(=O)N[C@@H](CO)C(=O)N[C@H](C(=O)N[C@@H](CC(N)=O)C(=O)N[C@H](C(=O)NCC(=O)N[C@@H](CO)C(=O)N[C@@H](CC(N)=O)C(=O)N[C@H](C(=O)N[C@@H](Cc1ccc(O)cc1)C(N)=O)[C@@H](C)O)C(C)C)[C@@H](C)O [Example 83]
2 | 10 h | 42.2 | 42.2 | 42.2 | 42.2 | 42.2 | 42.2 | 42.2 | 18.2 nM | CC[C@H](C)[C@H](NC(=O)[C@H](C)NC(=O)CNC(=O)[C@H](Cc1ccccc1)NC(=O)[C@H](CC(N)=O)NC(=O)[C@@H]1CCCN1C(=O)[C@H](CO)NC(=O)[C@H](CO)NC(=O)[C@H](Cc1c[nH]cn1)NC(=O)[C@H](CCCNC(=N)N)NC(=O)[C@H](CC(C)C)NC(=O)[C@H](Cc1ccccc1)NC(=O)[C@H](Cc1c[nH]cn1)NC(=O)[C@H](C)NC(=O)[C@H](CC(C)C)NC(=O)[C@H](CCCNC(=N)N)NC(=O)[C@H](CCC(N)=O)NC(=O)[C@@H](NC(=O)[C@H](C)NC(=O)[C@@H]1CSSC[C@H](NC(=O)[C@@H](N)CCCCNC(=O)COCCOCCNC(=O)CCCCCCCCCCCCCCCCCCC(=O)O)C(=O)N[C@@H](CC(N)=O)C(=O)N[C@@H]([C@@H](C)O)C(=O)N[C@@H](C)C(=O)N[C@@H]([C@@H](C)O)C(=O)N1)[C@@H](C)O)C(=O)N1CCC[C@H]1C(=O)N[C@@H](CO)C(=O)N[C@@H](CO)C(=O)N[C@H](C(=O)N[C@@H](CC(N)=O)C(=O)N[C@H](C(=O)NCC(=O)N[C@@H](CO)C(=O)N[C@@H](CC(N)=O)C(=O)N[C@H](C(=O)N[C@@H](Cc1ccc(O)cc1)C(N)=O)[C@@H](C)O)C(C)C)[C@@H](C)O [Example 90]
3 | 4 h | 100.8 | 100.8 | 100.8 | 100.8 | 100.8 | 100.8 | 100.8 | 29.5 nM | CC[C@H](C)[C@H](NC(=O)[C@H](C)NC(=O)CNC(=O)[C@H](Cc1ccccc1)NC(=O)[C@H](CC(N)=O)NC(=O)[C@@H]1CCCN1C(=O)[C@H](CO)NC(=O)[C@H](CO)NC(=O)[C@H](Cc1c[nH]cn1)NC(=O)[C@H](CCCNC(=N)N)NC(=O)[C@H](CC(C)C)NC(=O)[C@H](Cc1ccccc1)NC(=O)[C@H](CC(N)=O)NC(=O)[C@H](C)NC(=O)[C@H](CC(C)C)NC(=O)[C@H](CCCNC(=N)N)NC(=O)[C@H](CCC(N)=O)NC(=O)[C@@H](NC(=O)[C@H](C)NC(=O)[C@@H]1CSSC[C@H](NC(=O)[C@@H](N)CCCCNC(=O)COCCOCCNC(=O)CCCCCCCCCCCCCCCCCCC(=O)O)C(=O)N[C@@H](CC(N)=O)C(=O)N[C@@H]([C@@H](C)O)C(=O)N[C@@H](C)C(=O)N[C@@H]([C@@H](C)O)C(=O)N1)[C@@H](C)O)C(=O)N1CCC[C@H]1C(=O)N[C@@H](CO)C(=O)N[C@@H](CO)C(=O)N[C@H](C(=O)N[C@@H](CC(N)=O)C(=O)N[C@H](C(=O)NCC(=O)N[C@@H](Cc1c[nH]cn1)C(=O)N[C@@H](CC(N)=O)C(=O)N[C@H](C(=O)N[C@@H](Cc1ccc(O)cc1)C(N)=O)[C@@H](C)O)C(C)C)[C@@H](C)O [Example 91]
4 | 8 h | 145.0 | 145.0 | 145.0 | 145.0 | 145.0 | 145.0 | 145.0 | 105 nM | CC[C@H](C)[C@H](NC(=O)[C@H](C)NC(=O)CNC(=O)[C@H](Cc1ccccc1)NC(=O)[C@H](CC(N)=O)NC(=O)[C@@H]1CCCN1C(=O)[C@H](CO)NC(=O)[C@H](CO)NC(=O)[C@H](Cc1c[nH]cn1)NC(=O)[C@H](CCCNC(=N)N)NC(=O)[C@H](CC(C)C)NC(=O)[C@H](Cc1ccccc1)NC(=O)[C@H](Cc1c[nH]cn1)NC(=O)[C@H](C)NC(=O)[C@H](CC(C)C)NC(=O)[C@H](CCCNC(=N)N)NC(=O)[C@H](CCC(N)=O)NC(=O)[C@@H](NC(=O)[C@H](C)NC(=O)[C@@H]1CSSC[C@H](NC(=O)[C@@H](N)CCCCNC(=O)CC[C@H](NC(=O)CC[C@H](NC(=O)CCCCCCCCCCCCCCCCCCC(=O)O)C(=O)O)C(=O)O)C(=O)N[C@@H](CC(N)=O)C(=O)N[C@@H]([C@@H](C)O)C(=O)N[C@@H](C)C(=O)N[C@@H]([C@@H](C)O)C(=O)N1)[C@@H](C)O)C(=O)N1CCC[C@H]1C(=O)N[C@@H](CO)C(=O)N[C@@H](CO)C(=O)N[C@H](C(=O)N[C@@H](CC(N)=O)C(=O)N[C@H](C(=O)NCC(=O)N[C@@H](CO)C(=O)N[C@@H](CC(N)=O)C(=O)N[C@H](C(=O)N[C@@H](Cc1ccc(O)cc1)C(N)=O)[C@@H](C)O)C(C)C)[C@@H](C)O [Example 92]
